Measured values published in patent publication US12565522B2, “Micropeptide HMMW and application thereof” (NANJING ANJI BIOTECHNOLOGY CO., LTD., priority 2019, dated 2026).
No end group written: not given here.

Columns and labels:
Assay in all cases: Matrigel transwell invasion test
Assay type in all cases: cell-based, human
Details in all cases: 24 h
[1] = tested on: A431 cells of skin cancer
Protocol: (§1) Dilute 10 mg/mL Matrigel with culture medium at 1:3, spread it on membranes of transwell cells and dry it in the air at room temperature. Use trypsin to digest and collect SCC4 cells of head and neck cancer, SW579 cells of thyroid cancer, A549 cells of lung cancer, TE13 cells of esophageal squamous cell carcinoma, MGC803 cells of stomach cancer, MDA-MB-231 cells of breast cancer, UOK262 cells of kidney cancer, and A431 cells of skin cancer of human, which were cultured to the logarithmic phase, wash with PBS twice and re-suspend with a blank culture medium. Adjust cell concentration to 1×10^5 cells/mL. Inoculate the cells to transwell cells, 100 μL per well, and meanwhile add micropeptides HMMW I to IX at different doses to every cell. Add 0.6 mL of complete medium containing 10% FBS to the transwell cells to stimulate cell invasion, and culture in 5% CO2 at 37 DEG C. for 24 h. Discard the medium in the wells, fix with 90% alcohol at room temperature for 30 min, stain with 0.1% crystal violet at room temperature for 10 min, rinse with clear water, gently wipe off the non-invaded cells in the upper layer with a cotton swab, observe under a microscope and select four fields of view to take pictures and count. Calculate the invasion inhibition rate (IIR) of the cells according to the following formula:
(§2) [formula] where Ntest is the number of invaded cells in the test groups (the groups at a dose of 1, 4 or 16 μM in the table), Ncontrol is the number of invaded cells in the blank control groups (the groups at a dose of 0 μM in the table). The test was repeated independently three times. Mean±SD was calculated based on the test results. Statistical t test was done. Value P was used to express statistical difference. The statistical significance of the results is a method for estimating how true the results are (the totality can be represented), *P<0.05 means significant difference, and **P<0.01 means very significant difference.

[2] = tested on: A549 cells of lung cancer
Protocol: as §1, §2

[3] = tested on: MDA-MB-231 cells of breast cancer
Protocol: as §1, §2

[4] = tested on: MGC803 cells of stomach cancer
Protocol: as §1, §2

[5] = tested on: SCC4 cells of head and neck cancer
Protocol: as §1, §2

[6] = tested on: SW579 cells of thyroid cancer
Protocol: as §1, §2

[7] = tested on: TE13 cells of esophageal squamous cell carcinoma
Protocol: as §1, §2

[8] = tested on: UOK262 cells of kidney cancer
Protocol: as §1, §2

Substance | invasion inhibition rate ([1]; dose 1 μM) [%] | invasion inhibition rate ([1]; dose 4 μM) [%] | invasion inhibition rate ([1]; dose 16 μM) [%] | invasion inhibition rate ([2]; dose 1 μM) [%] | invasion inhibition rate ([2]; dose 4 μM) [%] | invasion inhibition rate ([2]; dose 16 μM) [%] | invasion inhibition rate ([3]; dose 1 μM) [%] | invasion inhibition rate ([3]; dose 4 μM) [%] | invasion inhibition rate ([3]; dose 16 μM) [%] | invasion inhibition rate ([4]; dose 1 μM) [%] | invasion inhibition rate ([4]; dose 4 μM) [%] | invasion inhibition rate ([4]; dose 16 μM) [%] | invasion inhibition rate ([5]; dose 1 μM) [%] | invasion inhibition rate ([5]; dose 4 μM) [%] | invasion inhibition rate ([5]; dose 16 μM) [%] | invasion inhibition rate ([6]; dose 1 μM) [%] | invasion inhibition rate ([6]; dose 4 μM) [%] | invasion inhibition rate ([6]; dose 16 μM) [%] | invasion inhibition rate ([7]; dose 1 μM) [%] | invasion inhibition rate ([7]; dose 4 μM) [%] | further results
MERAGVPGFSPRRSSVEAKMQSTSCSVRKSSTVTAWPAVVLLLSWGQRDEE-OH [HMMW-VI] | 36.83 | 57.35 | 71.16 | 34.15 | 56.32 | 65.35 | 24.83 | 46.57 | 71.43 | 23.42 | 54.19 | 63.35 | 22.83 | 47.82 | 74.16 | 23.29 | 46.63 | 67.58 | 22.25 | 42.39 | invasion inhibition rate ([7]; dose 16 μM): 67.47%; invasion inhibition rate ([8]; dose 1 μM): 38.15%; invasion inhibition rate ([8]; dose 4 μM): 58.28%; invasion inhibition rate ([8]; dose 16 μM): 67.51%
MGSTGVPGFSPRRSSVEAKMQSTSCSVRKSSTVTAWPAVVLLLSWGQRRGG-OH [HMMW-VII] | 34.70 | 55.51 | 69.24 | 32.22 | 52.42 | 64.02 | 27.91 | 49.55 | 74.32 | 29.50 | 54.34 | 69.57 | 19.70 | 43.11 | 70.84 | 20.11 | 43.72 | 63.71 | 25.11 | 45.36 | invasion inhibition rate ([7]; dose 16 μM): 67.52%; invasion inhibition rate ([8]; dose 1 μM): 36.74%; invasion inhibition rate ([8]; dose 4 μM): 56.26%; invasion inhibition rate ([8]; dose 16 μM): 67.62%
MERAGVPGFSPRRSSVEAKMQSTSCSVRKSSTVTAWPAVVLLLSWGQRRGG-OH [HMMW-I] | 32.74 | 51.22 | 69.37 | 31.23 | 51.32 | 64.08 | 27.97 | 48.95 | 70.49 | 26.12 | 50.08 | 68.62 | 20.75 | 46.24 | 74.84 | 19.63 | 44.76 | 64.89 | 20.43 | 42.86 | invasion inhibition rate ([7]; dose 16 μM): 66.51%; invasion inhibition rate ([8]; dose 1 μM): 33.80%; invasion inhibition rate ([8]; dose 4 μM): 53.12%; invasion inhibition rate ([8]; dose 16 μM): 66.67%
MGRAGVPGFSPRRSSVEAKMQSTSCSVRKSSTVTAWPAVVLLLSWGQRRGG-OH [HMMW-IX] | 34.83 | 54.35 | 74.16 | 30.15 | 60.32 | 70.35 | 27.83 | 49.57 | 75.43 | 26.42 | 57.19 | 68.35 | 24.83 | 48.82 | 75.16 | 25.21 | 48.60 | 62.48 | 21.25 | 40.39 | invasion inhibition rate ([7]; dose 16 μM): 65.47%; invasion inhibition rate ([8]; dose 1 μM): 39.15%; invasion inhibition rate ([8]; dose 4 μM): 59.28%; invasion inhibition rate ([8]; dose 16 μM): 69.51%
MERAGVPGFSPRRSSVEAKMQSTSCSVRKSSTVTAWPAVVLLLSWGKDDEE-OH [HMMW-IV] | 36.25 | 57.19 | 71.36 | 34.22 | 56.11 | 65.24 | 24.91 | 46.73 | 71.64 | 23.50 | 54.21 | 63.49 | 22.79 | 47.34 | 74.40 | 23.10 | 46.71 | 67.72 | 22.40 | 42.42 | invasion inhibition rate ([7]; dose 16 μM): 67.51%; invasion inhibition rate ([8]; dose 1 μM): 38.40%; invasion inhibition rate ([8]; dose 4 μM): 58.36%; invasion inhibition rate ([8]; dose 16 μM): 67.62%
MERAGVPGFSPRRSSVEAKMQSTSCSVRKSSTVTAWPAVVLLLHTSKDDEE-OH [HMMW-II] | 31.71 | 53.41 | 68.25 | 33.25 | 55.12 | 65.09 | 25.93 | 47.75 | 71.52 | 27.52 | 51.04 | 66.51 | 21.72 | 45.14 | 73.80 | 22.13 | 45.78 | 66.73 | 21.41 | 43.46 | invasion inhibition rate ([7]; dose 16 μM): 64.56%; invasion inhibition rate ([8]; dose 1 μM): 34.70%; invasion inhibition rate ([8]; dose 4 μM): 54.16%; invasion inhibition rate ([8]; dose 16 μM): 65.64%
MGSTYNPGFSPRRSSVEAKMQSTSCSVRKSSTVTAWPAVVLLLSWGQRRGG-OH [HMMW-V] | 32.19 | 51.35 | 69.29 | 31.19 | 51.27 | 64.25 | 27.25 | 48.37 | 70.50 | 26.53 | 50.24 | 68.38 | 20.34 | 46.26 | 74.71 | 19.09 | 44.23 | 64.14 | 20.29 | 42.74 | invasion inhibition rate ([7]; dose 16 μM): 66.69%; invasion inhibition rate ([8]; dose 1 μM): 33.43%; invasion inhibition rate ([8]; dose 4 μM): 53.27%; invasion inhibition rate ([8]; dose 16 μM): 66.14%
